These results are taken from patent publication US20130209985A1, “SAMPLE COLLECTION DEVICES WITH BLOOD STABILIZING AGENTS” (priority 2012, published 2013).

One may read the Ki as a measure of affinity in units of concentration, obtained from inhibition or displacement.

Test [1] concerns CD62P (P-selectin) surface expression on platelets. Nature of the test: Whole blood flow cytometry of platelet CD62P surface expression (α-granule release). Format: cell-based. Conditions: for median PE fluorescence (CD62P) / frequency of CD62P expression (CD62P+ platelets): Example 1; for CD62P expression: Example 2, iloprost 0.5 μM where added, mean of 3 subjects; for MFI Over Time (CD62P, all platelet events): Example 3, 10 subjects. From the text:
(§1) Platelet activation can result in a robust and rapid release of α-granules, dense granules, and lysosomes, the contents of which serve to promote a variety of autocrine and paracrine signal transduction events. CD62P (P-selectin) is an adhesion molecule that is transiently expressed on the platelet plasma membrane following α-granule release and can mediate platelet-leukocyte aggregates via ligation with leukocyte expressed P-selectin glycoprotein ligand 1 (PSGL-1/CD162). Dense granule and lysosome release can be measured, although not distinguished, with CD63 surface expression.
(§2) The effect of EDTA on platelet activation, as judged by CD62P and CD63 surface expression, was evaluated in the presence or absence of the platelet stabilization agent (iloprost). Whole blood was collected into tubes containing EDTA or EDTA with iloprost at 0.5, 5 and 50 μM final concentration. Antibody cocktails containing previously determined amounts of αCD61 PerCP, αCD62P PE, αCD63 Alexa Fluor® 647, and/or appropriate isotype controls were added to a conical bottom micro titer plate. A modified HEPES-Tyrode's buffer was used to equilibrate the final volume to 100 μL for each staining reaction. Platelet surface staining was performed by adding 5 μL of whole blood to the appropriate staining mix and incubating at RT under dark conditions for 15 minutes. Afterwards, the entire reaction was transferred to 5 mL round bottom polystyrene snap cap tubes containing 1 mL of HEPES-Tyrode's buffer for a final dilution of each sample. Samples were briefly vortexed and data was acquired using a BD FACScalibur instrument. FSC and SSC settings were established on the log scale in order to discern platelet size and morphology from RBC and WBC populations. In order to further discriminate platelet-specific events, a PerCP alone control was used to establish a CD61^+ gate. Since CD63 is not a platelet specific marker it was necessary to further gate on the single platelet morphology population to avoid a CD63 signature from the platelet-bound leukocytes. The PerCP alone control was also used to set fluorescence detector voltages for CD62P^−/CD63^− populations. Once voltage and compensation settings were finalized, 10,000 CD61^+/single platelet events were acquired for each test sample.
The effect of iloprost on platelet activation was studied in the presence of strong platelet-activating agents, ADP and thrombin-receptor activating peptide (TRAP). Platelet stimulations were performed by adding 300 μL blood to micro-centrifuge tubes containing 10 μL of saline (0.85%), ADP, or TRAP-6 and incubating for approximately 2 min at RT. Final concentrations of ADP and TRAP-6 were 6.5 μM and 32 μM, respectively. Afterwards, whole blood flow cytometry was performed as described above. Blood collection and flow cytometry was performed as described in example 1.
The effect of iloprost on platelet degranulation was measured in EDTA and EDTA/protease inhibitor background. Whole blood was collected into tubes containing EDTA, EDTA with iloprost, a protease inhibitor cocktail (“PIC”, which included one protease inhibitor from each class of inhibitor described in Table II in U.S. Pat. No. 7,309,468), and the cocktail with iloprost. Whole blood flow cytometry to measure CD62P expression was performed as described in example 1.
Background: A flow cytometer gives signals particle by particle.

Test [2] deals with CD63 surface expression on platelets. Nature of the test: Whole blood flow cytometry of platelet CD63 surface expression (dense granule/lysosome release). The settings on record: Example 2; for CD63 surface expression: EDTA without iloprost. Format: cell-based.
Source text: as §1
as §2, with “Since CD63 is not a platelet specific marker it was necessary to further gate on the single platelet morphology population to avoid a CD63 signature from the platelet-bound leukocytes.” left out, “Once voltage and compensation settings were finalized, 10,000 CD61^+/single platelet events were acquired for each test sample.” left out

For test [3], the system named is platelet-leukocyte aggregates. Nature of the test: Leukocyte-platelet aggregates by flow cytometry (αCD61/αCD45). Format: cell-based. Conditions: t=0, 4, 24 and 144 hr of sample dwell; versus EDTA alone; 6 subjects. From the text:
Blood was collected as described in example 1. Antibody cocktails containing previously determined amounts of αCD61 (platelet marker), αCD45 (leukocyte marker) and/or appropriate isotype controls were used to detect the platelet-leukocyte aggregates at t=0, 4, 24 and 144 hr of sample dwell with the use of flow cytometry as described in example 1. […] Data representative of 6 subjects.

The test system of test [4] is RANTES (CCL5). In words: Plasma biomarker release, ELISA. It counts as cell-based. Conditions: 0, 2, 8 and 24 hr sample dwell; relative to EDTA alone. As to the method:
(§3) Blood was collected as described in example 1. Plasma was prepared at indicated timepoints (0, 2, 8 and 24 hr sample dwell) by centrifuging the tubes at 3000 rcf for 10 min. and was used to measure levels of PDGFa/a, TGFβ1, VEGF, IL-8 (CXCL8), and RANTES (CCL5) using commercially available ELISA kits, per manufacturer's instructions.

Test [5] relates to TGFβ1. Nature of the test: Plasma biomarker release, ELISA. It counts as cell-based. Conditions: 0, 2, 8 and 24 hr sample dwell; relative to EDTA alone. As to the method: as §3
Test [6] relates to VEGF. Nature of the test: Plasma biomarker release, ELISA. The settings on record: 0, 2, 8 and 24 hr sample dwell; relative to EDTA alone. Format: cell-based. How it is done:
as §3
On the technique in general: An ELISA detects its analyte on a solid surface through an enzyme-linked reagent.

In test [7] the test system is IL-8 (CXCL8). In words: Plasma biomarker release, ELISA. Format: cell-based. Conditions: EDTA with iloprost versus EDTA alone. How it is done: as §3
Test [8] relates to PDGFa/a. In words: Plasma biomarker release, ELISA. It counts as cell-based. The settings on record: 0, 2, 8 and 24 hr sample dwell; relative to EDTA alone. As to the method:
as §3

The test system of test [9] is platelets (platelet clumping). Nature of the test: Complete blood count and hematology parameters, Sysmex XE-2100. The settings on record: compared to EDTA alone. It counts as cell-based.
Test [10] deals with acetylcholinesterase (AChE) (Homo sapiens, UniProt P22303). The settings on record: read-out: Ki for AChE; cited from earlier work.
[11] abbreviates: whole blood in EDTA, iloprost 0.5 μM.
Where [12] appears, read: whole blood in EDTA, iloprost 5 μM.
Setting [13] is: whole blood in EDTA, iloprost 50 μM.

Molecules are shown by their SMILES.

acetylcholinesterase (AChE), sequence (P22303 32-614, species assumed): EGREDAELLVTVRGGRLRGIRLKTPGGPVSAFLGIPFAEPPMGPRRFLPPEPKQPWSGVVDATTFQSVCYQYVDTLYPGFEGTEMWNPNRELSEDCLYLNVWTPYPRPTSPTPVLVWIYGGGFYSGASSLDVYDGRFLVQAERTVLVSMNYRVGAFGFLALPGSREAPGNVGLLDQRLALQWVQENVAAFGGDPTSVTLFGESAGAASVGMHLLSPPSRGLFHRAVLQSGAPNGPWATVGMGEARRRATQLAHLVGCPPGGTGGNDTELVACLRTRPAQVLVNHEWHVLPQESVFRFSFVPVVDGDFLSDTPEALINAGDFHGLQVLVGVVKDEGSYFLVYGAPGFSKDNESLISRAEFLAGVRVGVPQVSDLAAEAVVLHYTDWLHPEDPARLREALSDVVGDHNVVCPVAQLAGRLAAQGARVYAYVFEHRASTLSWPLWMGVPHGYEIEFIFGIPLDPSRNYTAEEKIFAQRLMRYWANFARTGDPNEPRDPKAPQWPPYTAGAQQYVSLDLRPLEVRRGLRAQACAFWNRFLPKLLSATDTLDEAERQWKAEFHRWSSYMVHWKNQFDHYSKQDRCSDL

As to `O=C(O)CN(CCN(CC(=O)O)CC(=O)O)CC(=O)O` [EDTA, Ethylenediamine tetraacetic acid], the “median PE fluorescence (CD62P)” value in test [1] (whole blood in EDTA alone) came to 44.7. The “frequency of CD62P expression (CD62P+ platelets)” value in test [1] (whole blood in EDTA alone, no iloprost) amounted to 44.7%. In addition, the CD62P expression is 85.1% in test [1] (ADP 6.5 μM activated), 99.4% in test [1] (TRAP-6 32 μM activated) and 44.6% in test [1] (resting samples (saline)). The “MFI Over Time (CD62P, all platelet events)” value in [1] (0 hrs sample dwell) was determined as 20.21; in test [1] (2 hrs sample dwell), 42.66; in [1] (8 hrs sample dwell), 33.14; in test [1] (24 hrs sample dwell), 63.02. Also, in test [1] (Example 10, 5 subjects), the “MFI (CD62P, all platelet events)” value is 171.56. Further, the CD63 surface expression in [2] (ADP 6.5 μM) is on record as 7.67%; in test [2] (unstimulated) it was 2.13%. This compound also came in with a CD63 expression in test [2] (TRAP-6 32 μM stimulated, iloprost 0.5, 5, 50 μM where added) of 69.3%.
As to `CC#CCC(C)[C@H](O)/C=C/[C@@H]1[C@H]2C/C(=C/CCCC(=O)O)C[C@H]2C[C@H]1O` (some centres unmarked) [iloprost], the “percentage of leukocyte-bound platelets” value in [3] is given as “reduced”. Also, the entries for the “frequency of CD62P expression (CD62P+ platelets)” value in test [1] (setting [11]), in test [1] (setting [12]) and in test [1] (setting [13]) were 15.0%, 14.1% and 13.9%, respectively. Further, the “median PE fluorescence (CD62P)” value in test [1] (setting [11]) is recorded as 7.31; in [1] (setting [12]), 7.12; in test [1] (setting [13]), 7.06. Also, the CD62P expression in test [1] (ADP 6.5 μM activated) is given as 17.3%; in test [1] (TRAP-6 32 μM activated) it was 33.4%; in test [1] (resting samples (saline)), 15.0%. The “percentage of CD62+ events” value in [1] (Example 10, both EDTA and PIC backgrounds, 5 subjects) was “reduced”. Besides, in test [4], the “expression of RANTES in plasma” value is given as “reduced”. Moreover, in [5], the “expression of TGFβ1 in plasma” value was “reduced”. The “expression of VEGF in plasma” value in test [6] is “reduced”. In addition, the “expression of IL-8 in plasma” value in test [7] is “similar”. Besides, in test [8], the “expression of PDGFa/a in plasma” value was “reduced”. The “mean platelet volume (MPV)” value in [9] (p<0.001, Paired Test) was “lower”. For the same compound, the “decrease in platelet clumps” value in test [9] (study of 300 normal healthy subjects) stood at 40%.
On to `CCC1=CC2Cc3nc4cc(Cl)ccc4c(N)c3C(C1)C2` [Huprine X, (1S)-7-chloro-15-ethyl-10-azatetracyclo[11.3.1.0̂{2,11}.0̂{4,9}]heptadeca-2(11),3,5,7,9,14-hexane-3-amine], for which, in [10], the inhibition constant Ki is 0.026 nM.
